Molecular target: T1, PAR4 (Homo sapiens, UniProt Q96RI0)
T1 construct: 60 μL of washed platelets (Tyrodes buffer containing 0.1% BSA); endogenous in cells
T1 sequence (Q96RI0 18-385): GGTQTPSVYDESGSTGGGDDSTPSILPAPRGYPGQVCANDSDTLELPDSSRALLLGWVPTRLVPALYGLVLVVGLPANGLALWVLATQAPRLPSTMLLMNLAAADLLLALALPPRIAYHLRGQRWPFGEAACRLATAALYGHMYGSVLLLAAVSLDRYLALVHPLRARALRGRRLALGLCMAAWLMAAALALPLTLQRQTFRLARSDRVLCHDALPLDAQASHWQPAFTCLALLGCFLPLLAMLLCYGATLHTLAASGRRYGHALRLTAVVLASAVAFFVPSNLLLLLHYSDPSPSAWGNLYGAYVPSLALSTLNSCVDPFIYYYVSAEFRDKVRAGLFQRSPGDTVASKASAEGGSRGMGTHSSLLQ
Assay: PAC-1 Binding assay (antagonism of PAR4 mediated αIIBβ3 activation, flow cytometry)
Format: cell-based
Details: for % Max PAC-1: washed platelets, 100% response = DMSO treated control stimulated with 200 μM PAR4-AP, mean values; for IC50: washed platelets stimulated with PAR4-AP, PAC-1 binding, sigmoidal dose response, variable slope
Description: PAC-1 Binding assay: 60 μL of washed platelets (Tyrodes buffer containing 0.1% BSA) at a concentration of 0.15×10^8 platelets/mL were added to 5 mL round bottom polystyrene tubes (BD, Franklin Lakes, N.J.). FITC conjugated PAC-1 (BD Biosciences, San Jose, Calif.) antibody was diluted (to the manufacturers recommended concentration) in Tyrode's buffer containing 0.1% BSA. 40 μL of diluted antibody was added to the platelets and allowed to incubate for 5 minutes. Platelets were pre-treated with indicated concentrations of antagonist or DMSO control for 5 minutes followed by addition of PAR1-AP (GL Biochem, Shanghai, China) or PAR4-AP for 10 minutes. […] The final DMSO concentration was 0.5%. Platelets were stored up to 18 hours at 4° C. before flow cytometric analysis. Analysis was carried out on a BD FACS Canto II (Franklin Lakes, N.J.). Fluorescent intensity was determined for 100,000 events within the platelet gate. Data was collected and analyzed via FACS DiVa software. Flow cytometric data analysis was conducted by the following method. The DMSO-vehicle treated control was subtracted from each data point. 100% response for PAR4-AP was determined for each individual as the DMSO treated control stimulated with either 200 μM PAR4-AP, or 20 μM PAR1-AP. Data was plotted in GraphPad PRISM v.5.0. For compounds with a notable reduction in PAC-1 binding response, dose response curves and IC50 values were generated using the inhibitory sigmoidal dose response ‘variable slope’ parameter. PAR4 results are plotted as mean values.

Row | SMILES | % Max PAC-1 | IC50
1 | COc1ccc(-c2c(CO)n(Cc3cccc(F)c3)c3ccc(OC(F)(F)F)cc23)cn1 [Example B1] | 80.6% | –
2 | COc1ccc(-c2c(CO)n(Cc3cccc(C(F)(F)F)c3)c3ccc(OC(F)(F)F)cc23)cn1 [Example B3] | 59.7% | –
3 | COc1ccc(-c2c(CO)n(Cc3ccccc3)c3ccc(OC(F)(F)F)cc23)cn1 [Example B4] | 53.4% | –
4 | COc1ccc(-c2c(CO)n(Cc3cccc(Br)c3)c3ccc(OC(F)(F)F)cc23)cn1 [Example B7] | 27.2% | –
5 | COc1ccc(-c2c(CO)n(C)c3ccc(OC(F)(F)F)cc23)cn1 [Example B8] | 93.9% | –
6 | COc1cc(Cn2c(CO)c(-c3ccc(OC)nc3)c3cc(OC(F)(F)F)ccc32)cc(OC)c1 [Example B10] | 110.6% | –
7 | COc1ccc(-c2c(CO)n(Cc3cccc(Cl)c3)c3ccc(OC(F)(F)F)cc23)cn1 [Example B12] | 27.8% | –
8 | COc1ccc(-c2c(CO)n(Cc3cccc(Br)c3)c3ccc(S(C)(=O)=O)cc23)cn1 [Example B21] | 74.3% | –
9 | COc1ccc(-c2c(CO)n(Cc3ccc(C#N)cc3F)c3ccc(C#N)cc23)cn1 [Example B36] | 108.8% | –
10 | COc1ccc(-c2c(CO)n(Cc3cccc(Cl)c3)c3cc4c(cc23)OCO4)cn1 [Example B39] | 100.1% | –
11 | COc1ccc(-c2c(CO)n(Cc3ccc(C#N)cc3F)c3cc4c(cc23)OCO4)cn1 [Example B40] | 98.6% | –
12 | COc1cccc(Cn2c(CO)c(-c3ccc(OC)nc3)c3cc4c(cc32)OCO4)c1 [Example B45] | 129.1% | –
13 | OCc1c(-c2ccncc2)c2cc(OC(F)(F)F)ccc2n1Cc1ccccc1Cl [Example B47] | 101.7% | –
14 | CCOc1ncc(-c2c(CO)n(Cc3ccccc3Cl)c3ccc(OC(F)(F)F)cc23)cn1 [Example B52] | 24.0% | –
15 | COc1ncc(-c2c(CO)n(Cc3ccccc3Cl)c3ccc(OC(F)(F)F)cc23)cn1 [Example B54] | 2.01% | 2900 nM
16 | COc1ncc(-c2c(CO)n(Cc3ccc(F)cc3F)c3ccc(OC(F)(F)F)cc23)cn1 [Example B56] | 53.7% | > 10000 nM
17 | OCc1c(-c2ccc(F)nc2)c2cc(OC(F)(F)F)ccc2n1Cc1ccccc1Cl [Example B57] | 21.05% | 1290 nM
18 | COc1ccc(-c2c(CO)n(Cc3ccccc3)c3cc(OC(F)(F)F)ccc23)cn1 [Example B62] | 34.32% | 3710 nM
19 | COc1ccc(-c2c(COCc3csc(-c4ccccc4)n3)n(Cc3csc(-c4ccccc4)n3)c3ccc(OC(F)(F)F)cc23)cn1 [Example B70] | 61.82% | –
20 | CSc1ncc(-c2c(CO)n(Cc3ccccc3Cl)c3cc(OC(F)(F)F)ccc23)cn1 [Example B71] | 5.57% | 162 nM
21 | CSc1ccc(-c2c(CO)n(Cc3ccccc3Cl)c3ccc(OC(F)(F)F)cc23)cc1 [Example B73] | 107.63% | –
22 | COc1nn2cc(-c3c(CO)n(Cc4csc(-c5ccccc5)n4)c4ccc(OC(F)(F)F)cc34)nc2s1 [Example B74] | 38.32% | –
23 | CSc1ccc(-c2c(CO)n(Cc3ccccc3Cl)c3ccc(OC(F)(F)F)cc23)cn1 [Example B76] | 79.22% | –

Further lines, results first:

Row | % Max PAC-1 | IC50 | SMILES
24 | 19.7% | 823 nM | COc1ccc(-c2c(CO)n(Cc3ccc(F)cc3F)c3ccc(OC(F)(F)F)cc23)cn1 [Example B2]
25 | 36.5% | – | COc1ccc(-c2c(CO)n(Cc3cc(F)cc(F)c3)c3ccc(OC(F)(F)F)cc23)cn1 [Example B5]
26 | 89.0% | – | COc1ccc(-c2c(CO)n(Cc3ccccc3F)c3ccc(OC(F)(F)F)cc23)cn1 [Example B6]
27 | 40.9% | – | COc1cccc(Cn2c(CO)c(-c3ccc(OC)nc3)c3cc(OC(F)(F)F)ccc32)c1 [Example B11]
28 | 108.5% | – | COc1cccc(Cn2c(CO)c(-c3ccc(OC)nc3)c3cc(C(F)(F)F)ccc32)c1 [Example B13, (1-(3-methoxybenzyl)-3-(6-methoxypyridin-3-yl)-5-(trifluoromethyl)-1H-indol-2-yl)methanol]
29 | 113.7% | – | COc1ccc(-c2c(CO)n(Cc3ccccn3)c3ccc(C#N)cc23)cn1 [Example B26]
30 | 100.1% | – | COc1ccc(-c2c(CO)n(Cc3ccccn3)c3ccc(S(C)(=O)=O)cc23)cn1 [Example B27]
31 | 109.1% | – | COc1ccc(-c2c(CO)n(Cc3cccc(Br)c3)c3ccc(C#N)cc23)cn1 [Example B31]
32 | 105.0% | – | COc1ccc(-c2c(CO)n(Cc3ccc(F)cc3F)c3ccc(C#N)cc23)cn1 [Example B33]
33 | 107.2% | – | COc1ccc(-c2c(CO)n(Cc3ccccn3)c3cc4c(cc23)OCO4)cn1 [Example B38]
34 | 96.5% | – | COc1ccc(-c2c(CO)n(Cc3cccc(Br)c3)c3cc4c(cc23)OCO4)cn1 [Example B44]
35 | 14.5% | 1980 nM | CSc1ncc(-c2c(CO)n(Cc3ccc(F)cc3F)c3ccc(OC(F)(F)F)cc23)cn1 [Example B48]
36 | 96.0% | – | OCc1c(-c2cncnc2)c2cc(OC(F)(F)F)ccc2n1Cc1ccc(F)cc1F [Example B49]
37 | 48.5% | – | CCOc1ncc(-c2c(CO)n(Cc3ccc(F)cc3F)c3ccc(OC(F)(F)F)cc23)cn1 [Example B51]
38 | 48.2% | – | OCc1c(-c2ccc(F)nc2)c2cc(OC(F)(F)F)ccc2n1Cc1ccc(F)cc1F [Example B53]
39 | 101.8% | – | OCc1c(-c2cncnc2)c2cc(OC(F)(F)F)ccc2n1Cc1ccccc1Cl [Example B55]
40 | 102.2% | – | OCc1c(-c2ccncc2)c2cc(OC(F)(F)F)ccc2n1Cc1ccc(F)cc1F [Example B58]
41 | 4.31% | 1350 nM | COc1ccc2c(-c3ccc(OC)nc3)c(CO)n(Cc3ccccc3Cl)c2c1 [Example B59]
42 | 21.33% | 4300 nM | COc1ccc2c(-c3cnc(SC)nc3)c(CO)n(Cc3ccccc3Cl)c2c1 [Example B60]
43 | 19.78% | 3840 nM | CCOc1ccc2c(-c3ccc(OC)nc3)c(CO)n(Cc3ccccc3Cl)c2c1 [Example B61]
44 | 14.77% | 2150 nM | CCOc1ccc2c(-c3cnc(SC)nc3)c(CO)n(Cc3ccccc3Cl)c2c1 [Example B63]
45 | 18.53% | 1380 nM | CSc1ncc(-c2c(CO)n(Cc3ccccc3Cl)c3cc(OC(C)C)ccc23)cn1 [Example B64]
46 | 12.25% | 966 nM | COc1ccc(-c2c(CO)n(Cc3ccccc3Cl)c3cc(OC(F)(F)F)ccc23)cn1 [Example B65]
47 | 59.45% | – | COc1ccc(-c2c(CO)n(Cc3ccccc3Cl)c3cc(OC(C)C)ccc23)cn1 [Example B66]
48 | 116.1% | – | COc1ccc(-c2c(CO)[nH]c3ccc(OC(F)(F)F)cc23)cn1 [Example B67]
49 | 61.98% | – | COc1ccc(-c2c(CO)n(Cc3csc(-c4ccccc4)n3)c3ccc(OC(F)(F)F)cc23)cn1 [Example B68]
50 | 89.19% | – | COc1ccc(-c2c(CO)n(CC3CSC(c4ccccc4)=N3)c3ccc(OC(F)(F)F)cc23)cn1 (stereo not drawn) [Example B69]
51 | 81.76% | – | COc1ccc(-c2c(CO)n(Cc3ccccc3)c3cc(OC(C)C)ccc23)cn1 [Example B72]
52 | 8.40% | 184 nM | COc1nn2cc(-c3c(CO)n(Cc4ccccc4Cl)c4ccc(OC(F)(F)F)cc34)nc2s1 [Example B75, (1-(2-chlorobenzyl)-3-(2-methoxyimidazo[2,1-b][1,3,4]thiadiazol-6-yl)-5-(trifluoromethoxy)-1H-indol-2-yl)methanol]
